#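 Each compound was tested at five concentrations against cells in 96-well plates for 48 hours. GI50 is the concentration that inhibits growth by half.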 Calls of active or inactive are those of the source. Rule as the data show it: active = GI50 up to about 1.1 µM and inactive = higher.
# What was measured:
# Test in all cases: DTP human tumour cell line panel, 48 h
# HOP-18 = test system: HOP-18
# SNB-78 = test system: SNB-78
# DMS-273 = test system: DMS-273
# MDA-MB-231 = test system: MDA-MB-231
# Hs-578T = test system: Hs-578T
# RXF 631 = test system: RXF 631
# LXFL 529 = test system: LXFL 529
# 786-0 = test system: 786-0
# BT-549 = test system: BT-549
SMILES,GI50 (HOP-18),GI50 (SNB-78),GI50 (DMS-273),GI50 (MDA-MB-231),GI50 (Hs-578T),GI50 (RXF 631),GI50 (LXFL 529),GI50 (786-0),GI50 (BT-549)
C[C@H](CN1CC(=O)NC(=O)C1)N1CC(=O)NC(=O)C1,> 100 µM (inactive),> 100 µM (inactive),> 100 µM (inactive),,,,,,
CCOC(=O)N1CCN(C(=O)Nc2cccc3ccccc23)CC1,,,,> 10 µM (inactive),> 10 µM (inactive),,,,
COc1ccc2c(c1)CCCc1cn[nH]c1-2,> 100 µM (inactive),> 100 µM (inactive),> 100 µM (inactive),,,,,,
CCNC(=O)N(CC)CN(CC)C(=O)NCC,,> 100 µM (inactive),,,,> 100 µM (inactive),> 100 µM (inactive),,
O=C1C2=C(C3=NCCc4c[nH]c1c43)C1(C=C(Br)C(O)C(Br)=C1)CCN2 (stereo not given),10.7 µM (inactive),2.79 µM (inactive),1.03 µM (active),,,,,,
CC(C)C1OC(=O)/C=C/C=C/C=C/C=C/C=C/CC(O)C(C)C(O)CC(O)CC(O)CC(O)CC(O)CC(O)CC(O)/C=C/C1C (stereo not given),,,,,> 100 µM (inactive),,,,
CNC(=O)SCC(NC(=O)CCC(N)C(=O)O)C(=O)NCC(=O)O (stereo not given),> 82.2 µM (inactive),> 100 µM (inactive),> 83.9 µM (inactive),,,,,,
CC(C)=CCc1c(C)cc2cc3c(c(O)c2c1O)C(=O)C=C(O)C3(CC=C(C)C)C/C=C(\C)CO (stereo not given),3.61 µM (inactive),,52.8 µM (inactive),,,,,,
CC1=C(C(=O)NNS(=O)(=O)c2ccc(C)cc2)CC(C(=O)NNS(=O)(=O)c2ccc(C)cc2)=C(C)N1,27.1 µM (inactive),> 100 µM (inactive),,,,> 100 µM (inactive),52.1 µM (inactive),> 100 µM (inactive),
COc1ccc(C(O)(c2ccccc2)c2nccc3ccccc23)cc1 (stereo not given),,,,7.31 µM (inactive),4.71 µM (inactive),,,7.62 µM (inactive),8.41 µM (inactive)
O=C1CCCCC1C(O)(C(F)(F)F)C(F)(F)Cl (stereo not given),,,,> 10 µM (inactive),> 10 µM (inactive),,,> 10 µM (inactive),> 10 µM (inactive)
CC(=O)OCC1OC(OC(C)=O)C(NC#N)C(OC(C)=O)C1OC(C)=O (stereo not given),> 100 µM (inactive),,> 100 µM (inactive),,,,67.9 µM (inactive),> 100 µM (inactive),
Cc1ccc(NC(=O)C(=O)C2C(=O)N(c3ccccc3)N=C2N)cc1C (stereo not given),> 100 µM (inactive),> 100 µM (inactive),> 100 µM (inactive),,,> 100 µM (inactive),> 100 µM (inactive),> 100 µM (inactive),
CCOC(=O)C1(C(=O)OCC)CSC1,,,,> 100 µM (inactive),> 100 µM (inactive),,,,
N#Cc1c(NC(=S)Nc2ccc(Cl)cc2)sc2c1CCCC2,,,,3.54 µM (inactive),,,,,> 100 µM (inactive)
CC(=O)OC/C=C\Cn1nc(Br)c(=O)[nH]c1=O,,,,18 µM (inactive),21.5 µM (inactive),,,,9.77 µM (inactive)
CC(C)C(=O)CC(c1ccc(Br)cc1)N1N=C(C(C)C)CC1c1ccc(Br)cc1 (stereo not given),> 100 µM (inactive),,38.1 µM (inactive),,,,> 100 µM (inactive),,
O=C1c2ccccc2C(=O)N1CC(CN1C(=O)c2ccccc2C1=O)(C(=O)OCc1ccccc1)C(=O)OCc1ccccc1,,,,> 100 µM (inactive),> 100 µM (inactive),,,,> 100 µM (inactive)
CC1(C)CCCCCC(C)(CCCO)C1=O (stereo not given),,,,> 100 µM (inactive),> 100 µM (inactive),,,> 100 µM (inactive),> 100 µM (inactive)
FC(F)(F)C1=NC(=NNc2nnc(-c3ccccc3)c(-c3ccccc3)n2)N=C(C(F)(F)F)C1,50.2 µM (inactive),> 67.9 µM (inactive),5.86 µM (inactive),,,,,,
CCCNC1=NC(C)=CSC(Nc2ccccc2)=C1C#N,,,,> 100 µM (inactive),,,,> 100 µM (inactive),
COc1cc(/C=C/C(=O)O)ccc1C(=O)O/C=C/c1ccccc1,> 100 µM (inactive),> 100 µM (inactive),> 100 µM (inactive),,,,,,
C=CCN1C(=O)/C(=C/c2cccs2)N=C1SC1OC(COC(=O)c2ccccc2)C(OC(=O)c2ccccc2)C1OC(=O)c1ccccc1 (stereo not given),,,,> 100 µM (inactive),,,,,> 100 µM (inactive)
Cc1nc2ccc(NC3OCC(O)C(O)C3O)cc2c(=O)n1-c1ccccc1 (stereo not given),,,,> 100 µM (inactive),> 100 µM (inactive),,,> 100 µM (inactive),> 100 µM (inactive)
CC(=O)OC1CCn2c1nc1cc([N+](=O)[O-])c(C)cc12 (stereo not given),,,,> 100 µM (inactive),> 100 µM (inactive),,,> 100 µM (inactive),> 100 µM (inactive)
C[N+]1(C)CCCC(C#N)(c2ccccc2)CC1 (stereo not given),,,,,> 100 µM (inactive),,,> 100 µM (inactive),
COc1ccc2[nH]c3c(C)c4ccnc(NCCCN(C)CCCNc5ccc6nnn7c8ccccc8c(=O)c5c67)c4c(C)c3c2c1,,,,0.181 µM (active),1.38 µM (inactive),,,0.237 µM (active),1.83 µM (inactive)
O=C1C=C(N2CC2)C(=O)C=C1N1CC1,,0.138 µM (active),0.0617 µM (active),2.3 µM (inactive),2.39 µM (inactive),,0.159 µM (active),,0.348 µM (active)
